From patent publication US12617818B2, “Compositions and methods for modulating myosin subfragment-2 coiled coil stability and methods for using them” (UNIVERSITY OF NORTH TEXAS, priority 2020, dated 2026)

Key:
[1] = tested on: human cardiac myosin S2 peptide; assay: Competitive ELISA (cELISA) against polyclonal anti-S2 antibody; assay type: binding; details: low-high-low OD trend
Procedure: Phosphate buffer saline (PBS) contained 0.14 M sodium chloride, 2.7 mM potassium chloride, 1.5 mM potassium phosphate monobasic, and 8.1 mM sodium phosphate dibasic with pH 7.4. Detergent buffer was made with 0.05% triton X-100 in PBS, blocking buffer was made with 3% powdered milk in detergent buffer. Assay buffer contained 100 mM potassium phosphate dibasic, 100 mM potassium phosphate monobasic, 1 M potassium chloride and 10 mM magnesium chloride with pH 7.0. Stocks of primary antibody (polyclonal antibody anti-S2), rabbit skeletal myosin, human cardiac myosin S2 peptide, stabilizer and destabilizer peptide. Secondary antibody conjugated with alkaline phosphatase was anti-guinea pig immunoglobulin G (IgG)-alkaline phosphatase (Sigma-Aldrich, catalog number A5062) produced in goat and isolated by affinity chromatography. Substrate was 5-Bromo-4-chloro-3-indolyl phosphate (BCIP) tablets dissolved in 10 ml of distilled water per tablet and 96 well microtiter plate.
Competitive Enzyme Linked Immunosorbent Assay (cELISA) is a classical immunochemical test to validate the binding efficiency and specificity in lower molar concentrations (Yorde et al., 1976; Voller et al., 1978; Walker, J. M. 1996). In this assay the polyclonal antibody anti-S2 raised against single alpha helix of myosin S2 would be used to compete with stabilizer or destabilizer peptide to bind myosin S2 in rabbit skeletal myosin molecule as well as small human cardiac myosin S2 peptide. This cELISA, thus have two molecules polyclonal anti-S2 and stabilizer peptide which have two binding sites one on rabbit skeletal myosin and the other one being on small human cardiac myosin S2. Since both polyclonal anti-S2 and stabilizer peptide were designed against human β-cardiac myosin S2 they both would have a stronger affinity towards the smaller human β-cardiac myosin S2 peptide against the myosin S2 on rabbit skeletal myosin.
To test the binding specificity and efficiency of stabilizer or destabilizer peptide the following setup was used. Start of the setup would be to coat the wells with rabbit skeletal myosin molecule and add appropriate amount human cardiac myosin S2 peptide that would bind the primary polyclonal anti-S2 antibody and when washed there won't be enough primary polyclonal anti-S2 antibody to bind myosin S2 of rabbit skeletal myosin adsorbed on the wells. When alkaline phosphatase conjugated secondary antibody is added on to the wells, it won't have enough or none primary polyclonal anti-S2 antibody to bind. After addition of color developing BCIP substrate to the wells it would lead to low or no color development leading to lower optical density (OD). […]

[2] = molecular target: T1, cardiac muscle myosin S2 peptide E930del (MYH7 E930del) (Homo sapiens, UniProt P12883, DEL931-931); assay: GFS, uncoiling of E930del cardiac myosin S2 peptide dimer; assay type: biochemical; details: length 10 nm; in presence of stabilizer; ± SEM
T1 construct: host or cells: chemical synthesis
T1 sequence (P12883 with tags, fused parts or gaps DEL931-931): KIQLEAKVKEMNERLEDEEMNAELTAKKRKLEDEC
Description: 3-aminopropyltriethoxysilane, acetone, coupling buffer (0.01 M pyridine in water with pH 6.0), 5% glutaraldehyde, quenching solution (1 M glycine in water with pH 7.0), blocking buffer (0.01 M Tris, 0.1% sodium azide, 0.1% bovine serum albumin, 0.15 M sodium chloride, and 0.001 M ethylenediaminetetraacetic acid with pH 7.0), wash buffer (0.01 M Tris, 0.1% sodium azide, 0.15 M sodium chloride, and 0.001 M ethylenediaminetetraacetic acid with pH 7.0) low salt buffer (0.1 M potassium chloride, 0.02 M imidazole, 5 mM magnesium chloride, with pH 7.0), 1-ethyl-3-(3-dimethyaminopropyl) carbodiimide, N-hydroxysuccinamide, iodoacetamide-succinimidyl ester, 8M urea solution (50 mM imidazole and 0.1 mM tris (2-carboxyethyl) phosphine with pH 7.0) monodisperse silica beads, glass slides, glass coverslips, vacuum grease, rabbit skeletal myosin, purified actin (G-actin), 1 μM human β-cardiac myosin S2 peptide, 1 μM human β-cardiac mutants myosin S2 peptide (E930del and E924K), 1 μM human skeletal myosin S2 peptide, 1 μM human smooth myosin S2 peptide, stabilizer peptide, and destabilizer peptide. A light microscope with an objective lens of 10× was mounted on an alt-azimuthal mount. A digital video camera of Sony, XCD-V60 was replaced with the ocular lenses. Extension springs on steel bracket held the alt-azimuthal mount suspended.
Gravitational force spectroscopy (GFS), is a single molecule force spectroscopy that utilizes gravitational force to measure absolute length of a single molecule at the given force calculated by the density of the bead suspending the molecule. This technique was discovered and developed in Root lab, which measures the forces in piconewton and sub-piconewton levels. Other than absolute length of a molecule, GFS measures force range required to uncoil, stretch or extend the molecule yielding a force-distance profile for the suspended molecule. Besides that, based on the force-distance profile, number of amino acids within the molecule can be calculated. […] The GFS allowed to test the flexibility or stability of a single molecule of myosin S2 peptide and also for the S2 peptides treated with anti-S2 peptides. Flexibility of myosin S2 is not dependent on assembly myosin as a thick filament or myosin in its single molecule form. […]
Free fall mode, another measurement variant of GFS which allows the user to get a force distance profile on a single molecule experiencing the gravitational force. […] During the free fall mode, GFS has a single molecule which is suspended within an immobile edge and mobile bead will now experience the variable force which would be calculated by the product of mass of the bead and the acceleration of the GFS. […]

| Force required to uncoil S2 molecule [2] | SMILES | cross specificity to human cardiac myosin S2 and rabbit skeletal myosin S2 [1] |
| --- | --- | --- |
|  | CSCC[C@H](NC(=O)[C@H](CCC(=O)O)NC(=O)[C@H](CCCNC(=N)N)NC(=O)[C@H](CCC(=O)O)NC(=O)[C@H](CC(=O)O)NC(=O)[C@H](CCC(=O)O)NC(=O)[C@H](CC(C)C)NC(=O)[C@H](CCCNC(=N)N)NC(=O)[C@H](CCC(=O)O)NC(=O)[C@H](CC(N)=O)NC(=O)[C@H](CCSC)NC(=O)[C@@H](N)CCC(=O)O)C(=O)N[C@@H](CCCCN)C(=O)N[C@@H](C)C(=O)N[C@@H](CCC(=O)O)C(=O)N[C@@H](CC(C)C)C(=O)N[C@H](C(=O)N[C@@H](C)C(=O)N[C@@H](CCCCN)C(=O)O)[C@@H](C)O [Destabilizer] | cross specific |
| 1.07E+00 ± 8.28E−02 pN | C[C@H](NC(=O)[C@H](CCCCN)NC(=O)[C@H](Cc1ccccc1)NC(=O)[C@H](CCCCN)NC(=O)[C@H](CCCCN)NC(=O)[C@H](CCCCN)NC(=O)[C@H](CCCCN)NC(=O)[C@H](CCCCN)NC(=O)[C@H](CCCCN)NC(=O)[C@H](CCCCN)NC(=O)[C@@H](N)CCCCN)C(=O)N[C@@H](CCCCN)C(=O)N[C@@H](CCCCN)C(=O)N[C@@H](CCCCN)C(=O)N[C@@H](CCCCN)C(=O)N[C@@H](CCCCN)C(=O)N[C@@H](CCCCN)C(=O)O [Stabilizer] |  |
